Patent US11311609B2, “Regulating chimeric antigen receptors” (DANA-FARBER CANCER INSTITUTE, INC., priority 2017, dated 2022)

Columns and labels:
FKBP*-KRASG12V = test: Immunoblot of FKBP*-KRASG12V degradation in NIH3T3 cells; format: cell-based; conditions: NIH3T3 cells; 500 nM, indicated time
Protocol: (§1) FIG. 19 is an immunoblot of NIH3T3 cells expressing KRASG12V allele fused to FKBP* in the N-terminus or C-terminus. Cells were treated with 500 nM dFKBP7 for the indicated time. Cells were harvested and immunoblotted to measure degradation of FKBP*-KRASG12V and downstream surrogates of KRAS signaling (e.g. pMEK and pAKT).
(§2) Cells were harvested and immunoblotted to measure degradation of FKBP*-KRASG12V and downstream surrogates of KRAS signaling (e.g. pMEK and pAKT).
as §2, §2
Cells were treated with 500 nM dFKBP7 for the indicated time. Cells were harvested and immunoblotted to measure degradation of FKBP*-KRAS and downstream surrogates of KRAS signaling (e.g. pMEK and pAKT).
(§3) Cells were harvested and immunoblotted to measure degradation of FKBP*-KRAS and downstream surrogates of KRAS signaling (e.g. pMEK and pAKT).
as §3
To evaluate the kinetic control of targeted degradation of dTAG-KRAS, dFKBP13 was administered by increased duration. […]

[1] = system: KRAS signaling (pMEK and pAKT); test: Immunoblot of downstream surrogates of KRAS signaling in NIH3T3 cells expressing FKBP*-KRASG12V; format: cell-based; conditions: NIH3T3 cells, N-terminal dTAG-KRAS; 500 nM, indicated time
Protocol: as §1
(§4) FIG. 20 is an immunoblot of NIH3T3 cells expressing FKBP* fused to the N-terminus of KRASG12V treated with 1 uM of the indicated dFKBP heterobifunctional compounds for 24 hours. Cells were harvested and immunoblotted to measure degradation of FKBP*-KRASG12V and downstream surrogates of KRAS signaling (e.g. pMEK and pAKT).
as §4, with “21” for “20”, “with” for “with 1 uM of”, “concentrations of dFKBP13” for “dFKBP heterobifunctional compounds”
FIG. 22 is an immunoblot of NIH3T3 cells expressing FKBP* fused to the N-terminus of KRASG12V treated with 1 uM dFKBP13 for the indicated time. Cells were harvested and immunoblotted to measure degradation of FKBP*-KRASG12V and downstream surrogates of KRAS signaling (e.g. pMEK and pAKT).
Cells were treated with 500 nM dFKBP7 for the indicated time. […]

CC[C@H](C(=O)N1CCCC[C@H]1C(=O)O[C@H](CCc1ccc(OC)c(OC)c1)c1cccc(OCC(=O)NCCCOCCOCCOCCCNC(=O)COc2cccc3c2C(=O)N(C2CCC(=O)NC2=O)C3=O)c1)c1cc(OC)c(OC)c(OC)c1 (some centres unmarked) [dFKBP7]
Degradation of N-terminal dTAG-KRAS (FKBP*-KRASG12V): potent degradation
p-AKT signal [1]: downstream decrease in p-AKT signal
